According to ChEMBL document CHEMBL5532657, “Serendipitous discovery of Class I HDAC inhibitors from rational design of molecular glue degraders targeting HDAC” (Eur J Med Chem, 2024):
Active and inactive are the calls of the source. The rule behind the calls is not given here.

Experiments:
[1] = tested on: A549; assay: Antiproliferative activity against human A549 cells assessed as cell growth inhibition at 5 uM incubated for 48 hrs by CCK-8 assay; type: functional, cell-based
[2] = target: T1, Protein deacetylase HDAC6 (Homo sapiens) (UniProt Q9UBN7); assay: Inhibition of HDAC6 in human RS4-11 cells assessed as effect on alpha-tubulin acetylation by Western blot assay; type: cell-based
T1 sequence (whole entry): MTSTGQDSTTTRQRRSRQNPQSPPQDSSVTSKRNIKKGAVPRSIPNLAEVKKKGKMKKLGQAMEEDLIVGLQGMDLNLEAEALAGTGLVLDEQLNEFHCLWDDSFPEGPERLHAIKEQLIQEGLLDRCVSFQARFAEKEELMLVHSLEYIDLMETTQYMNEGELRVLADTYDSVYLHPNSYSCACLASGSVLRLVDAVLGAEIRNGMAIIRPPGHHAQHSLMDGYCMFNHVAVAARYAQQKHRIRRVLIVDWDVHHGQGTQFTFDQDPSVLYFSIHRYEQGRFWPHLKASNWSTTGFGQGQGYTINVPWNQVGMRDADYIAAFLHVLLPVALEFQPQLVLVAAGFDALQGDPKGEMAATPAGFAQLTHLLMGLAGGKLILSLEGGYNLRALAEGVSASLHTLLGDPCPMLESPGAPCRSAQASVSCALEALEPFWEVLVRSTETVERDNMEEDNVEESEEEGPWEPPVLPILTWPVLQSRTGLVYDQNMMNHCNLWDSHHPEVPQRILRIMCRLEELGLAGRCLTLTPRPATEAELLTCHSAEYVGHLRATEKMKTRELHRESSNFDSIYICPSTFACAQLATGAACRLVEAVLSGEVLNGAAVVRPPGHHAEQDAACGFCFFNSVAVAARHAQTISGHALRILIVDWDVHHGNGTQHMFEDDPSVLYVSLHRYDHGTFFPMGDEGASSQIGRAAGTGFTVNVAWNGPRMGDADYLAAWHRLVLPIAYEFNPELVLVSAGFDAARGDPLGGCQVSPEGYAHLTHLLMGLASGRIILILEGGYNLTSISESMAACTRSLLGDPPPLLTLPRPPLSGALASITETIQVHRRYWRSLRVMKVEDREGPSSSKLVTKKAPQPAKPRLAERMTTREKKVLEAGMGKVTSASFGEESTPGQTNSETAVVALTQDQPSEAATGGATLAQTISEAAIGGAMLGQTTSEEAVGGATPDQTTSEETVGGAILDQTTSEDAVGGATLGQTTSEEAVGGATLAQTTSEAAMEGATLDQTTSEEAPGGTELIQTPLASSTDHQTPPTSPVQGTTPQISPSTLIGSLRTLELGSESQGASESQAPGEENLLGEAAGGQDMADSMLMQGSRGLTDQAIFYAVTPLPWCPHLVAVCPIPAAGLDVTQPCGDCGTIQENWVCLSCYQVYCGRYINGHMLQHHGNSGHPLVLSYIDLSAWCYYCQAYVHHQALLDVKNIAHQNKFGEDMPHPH

[3] = tested on: RS4-11; assay: Induction of apoptosis in human RS4-11 cells after 48 hrs by Annexin V-FITC/PI staining based flow cytometry analysis; type: functional, cell-based; conditions: dose 1-10 µM

Activity [2] | SMILES | Activity [1] | Activity [3]
inactive | Nc1ccccc1NC(=O)c1ccc(CNc2cccc3c2C(=O)N(C2CCC(=O)NC2=O)C3=O)cc1 (stereo unspecified) | inactive | Dose-Dependent Effect
inactive | Nc1cc(F)ccc1NC(=O)c1ccc(CNc2cccc3c2C(=O)N(C2CCC(=O)NC2=O)C3=O)cc1 (stereo unspecified) | inactive | Dose-Dependent Effect
